The values below come from paper PMC3821638, “Molecular Cloning and Characterization of the Calcineurin Subunit A from Plutella xylostella” (International Journal of Molecular Sciences, 2013).

Each structure is given as a SMILES string. Read-outs that look alike come from different tables or passages of the source.

The target of the experiment is T1, Calcineurin subunit A (PxCNA), catalytic domain PxCNα (Plutella xylostella, UniProt V5U5Q7).
T1 construct: catalytic (phosphatase) domain CNA1–341 (PxCNα), His-tagged, expressed in E. coli
Put plainly: pNPP phosphatase assay with purified recombinant rPxCNα, dose-response and enzyme kinetics. The format is biochemical.

T1 sequence (V5U5Q7 1-341): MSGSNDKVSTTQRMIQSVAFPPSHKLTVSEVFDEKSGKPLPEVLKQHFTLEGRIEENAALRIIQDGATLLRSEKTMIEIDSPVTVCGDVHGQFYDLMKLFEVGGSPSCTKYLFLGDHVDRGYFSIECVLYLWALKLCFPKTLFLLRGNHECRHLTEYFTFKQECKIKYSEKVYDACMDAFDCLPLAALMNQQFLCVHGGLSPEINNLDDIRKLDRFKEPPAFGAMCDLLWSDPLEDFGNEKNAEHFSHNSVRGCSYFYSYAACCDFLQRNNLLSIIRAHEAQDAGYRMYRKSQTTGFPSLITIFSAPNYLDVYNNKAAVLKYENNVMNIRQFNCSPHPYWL

As to `C[C@@]12C(=O)OC(=O)[C@]1(C)[C@H]1CC[C@@H]2O1` [CTD, cantharidin], the IC50 turned out to be 77.6 µM.

With `C=C1[C@@H](O)[C@@H]2O[C@]3(CC[C@H](/C=C/[C@@H](C)[C@@H]4CC(C)=C[C@@]5(O[C@H](C[C@@](C)(O)C(=O)O)CC[C@H]5O)O4)O3)CC[C@H]2O[C@@H]1[C@@H](O)C[C@H](C)[C@H]1O[C@@]2(CCCCO2)CC[C@H]1C` [OA, okadaic acid], the IC50 (read-out: IC50) stood at 8.95 µM.

Usually IC50 stands for the concentration needed to halve the response being measured.
